Data taken from publication PMC3728144, “Synthesis, reactions and biological activity of some new bis-heterocyclic ring compounds containing sulphur atom” (Chemistry Central Journal, 2013).
Like-named read-outs stand apart in the source and are kept apart here.

Assays:
[1] = test system: PC3 cells (Prostrate Cancer); assay: Anticancer (cytotoxic) activity, MTT colorimetric assay; assay type: cell-based; settings: compounds 1-30 μM, n = 3, read-out: Anticancer activity (PC-3 cell line) IC50 ± SEM
Experimental: (§1) Various In vitro assays were performed to the assessment of biological activity of newly synthesized compounds. Results were presented here as means ± standard error from triplicate (n = 3) observation. IC50 values were calculated by using EZ-FIT, Enzyme kinetics software by Perrella Scientific.
Cytotoxic activity of compounds was evaluated in 96-well flat-bottomed microplates by using the standard MTT (3-[4, 5-dimethylthiazole-2-yl]-2, 5-diphenyl-tetrazolium bromide, MP) colorimetric assay. For this purpose, PC3 cells (Prostrate Cancer) were cultured in Dulbecco’s Modified Eagle Medium, supplemented with 10% of fetal bovine serum (FBS, PAA), 100 IU/mL of penicillin and 100 μ g/mL of streptomycin in 75 cm^2 flasks, and kept in 5% CO2 incubator at 37°C. Exponentially growing cells were harvested, counted with haemocytometer and diluted with a particular medium with 5% FBS. Cell culture with the concentration of 1x10^5 cells/mL was prepared and introduced (100 μL/well) into 96-well plates. After overnight incubation, medium was removed and 200 μL of fresh medium was added with different concentrations of compounds (1-30 μM). Stock solution, 20 mM of compounds were prepared in 100% DMSO and final concentration of DMSO at 30 μM is 0.15% .After 48 hrs, 200 μL MTT (0.5 mg/mL) was added to each well and incubated further for 4 hrs. Subsequently, 100 μL of DMSO was added to each well. The extent of MTT reduction to formazan within cells was calculated by measuring the absorbance at 570 nm, using a micro plate reader (Spectra Max plus, Molecular Devices, CA, USA). The cytotoxicity was recorded as concentration causing 50% growth inhibition (IC50) for PC3 cells. The percent inhibition was calculated by using the following formula:
% inhibition = 100-((mean of O.D of test compound – mean of O.D of negative control)/ (mean of O.D of positive control – mean of O.D of negative control)*100).
The results (% inhibition) were processed by using Soft- Max Pro software (Molecular Device, USA).

β-Glucuronidase = target: T1, β-Glucuronidase (Escherichia coli, UniProt P05804); assay: In vitro β-glucuronidase inhibition assay; assay type: biochemical; settings: p-nitrophenyl-β-D-glucuronide substrate, 37°C, 405 nm; NA = not active, failed to show 50% or more inhibition at 500 μM or more; read-out: ß-Glucuronidase inhibition IC50 ± SEM
T1 construct: purchased Sigma Aldrich G7396-25KU
Experimental: as §1
β-Glucuronidase inhibitory activity was determined by the spectrophotometric method by measuring the absorbance at 405 nm of p-nitrophenol formed from the substrate (p-nitrophenyl-β-D-glucuronide N1627-250 mg (Sigma Aldrich). The total reaction volume was 250 μL. The compound (5 μL) was dissolved in DMSO (100%), which becomes 2% in the ultimate assay (250 μL) and the similar conditions were used for standard (D-saccharic acid 1, 4-lactone, Sigma Aldrich). The reaction mixture contained 185 μL of 0.1 M acetate buffer, 5 μL of test compound solution, 10 μL of (1U) enzyme solution (G7396-25KU, Sigma Aldrich) was incubated at 37°C for 30 min. The plates were read on a multiplate reader (SpectraMax plus 384) at 405 nm after the addition of 50 μL of 0.4 mM p-nitrophenyl-β-D-glucuronide. All assays were performed in triplicate. IC50 Values were calculated by using EZ-Fit software (Perrella Scientific Inc., Amherst, MA, U.S.A.). These values are the mean of three independent readings.

[2] = DPPH radical scavenging antioxidant assay; settings: DPPH 300 μM, half an hour at 37°C, 515 nm, NA = not active, failed to show 50% or more inhibition at 500 μM or more, read-out: DPPH radical scavenging assay IC50 ± SEM
Experimental: as §1
Test samples were allowed to react with stable free radical, 1, 1-diphenyl-2-picrylhydrazyl radical (DPPH, Wako Chemicals USA, Inc.)) for half an hour at 37°C. Various concentrations of test samples (prepared in DMSO) were incubated with DPPH (300 μM; prepared in ethanol). After incubation, decrease in absorption was measured at 515 nm using a microplate reader (SpectraMax plus 384). Percentage radical scavenging activity (% RSA) by samples was determined, in comparison with a DMSO- treated control group.% Radical scavenging activity was calculated by using the formula given in statistical analysis section.

T1 sequence (P05804 whole entry): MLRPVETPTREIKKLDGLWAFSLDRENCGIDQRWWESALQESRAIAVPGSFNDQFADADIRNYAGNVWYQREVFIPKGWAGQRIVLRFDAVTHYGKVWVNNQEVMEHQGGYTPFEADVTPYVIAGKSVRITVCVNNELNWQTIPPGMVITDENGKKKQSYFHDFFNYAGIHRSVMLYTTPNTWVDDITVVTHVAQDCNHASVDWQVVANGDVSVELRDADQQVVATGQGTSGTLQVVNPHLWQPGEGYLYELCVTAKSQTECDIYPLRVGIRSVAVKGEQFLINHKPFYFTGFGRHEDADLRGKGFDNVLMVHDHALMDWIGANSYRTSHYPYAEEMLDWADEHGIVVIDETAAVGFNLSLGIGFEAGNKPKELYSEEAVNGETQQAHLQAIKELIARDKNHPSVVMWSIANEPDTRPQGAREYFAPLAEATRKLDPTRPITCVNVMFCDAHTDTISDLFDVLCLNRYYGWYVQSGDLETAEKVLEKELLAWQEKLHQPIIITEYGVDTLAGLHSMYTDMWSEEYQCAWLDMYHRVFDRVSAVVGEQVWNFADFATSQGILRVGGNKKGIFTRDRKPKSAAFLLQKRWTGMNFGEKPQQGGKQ

| SMILES | melting point | IC50 ([1]; Homo sapiens, PC-3, 48 h) | also measured |
| --- | --- | --- | --- |
| Cc1c(-c2csc(C(C#N)=Cc3ccccc3)n2)sc2sc(-c3csc(C(C#N)=Cc4ccccc4)n3)c(-c3ccccc3)c12 [Compound 4a, 2-(4-(5-(2-(1-Cyano-2-phenylvinyl)thiazol-4-yl)-3-methyl-4-phenylthieno[2,3-b]thiophen-2-yl)thiazol-2-yl)-3-phenylacrylonitrile] | 220 to 221 °C | > 30 µM | – |
| COc1ccc(C=C(C#N)c2nc(-c3sc4sc(-c5csc(C(C#N)=Cc6ccc(OC)cc6)n5)c(-c5ccccc5)c4c3C)cs2)cc1 [Compound 4c, 2-(4-(5-(2-(1-Cyano-2-(4-methoxyphenyl)vinyl)thiazol-4-yl)-3-methyl-4-phenylthieno[2,3-b]thiophen-2-yl)thiazol-2-yl)-3-(4-methoxyphenyl)acrylonitrile] | 238 to 239 °C | – | – |
| Cc1c(C(=O)CNc2ccc(Cl)cc2)sc2sc(C(=O)CNc3ccc(Cl)cc3)c(-c3ccccc3)c12 [Compound 9b, 1,1'-(3-Methyl-4-phenylthieno[2,3-b]thiophene-2,5-diyl)bis(2-(4-chlorophenylamino)ethanone)] | > 320 °C | > 30 µM | – |
| O=C(O)[C@@H](O)[C@H]1OC(=O)[C@H](O)[C@H]1O [D-Saccharic acid 1,4-lactone, reference compound] | – | – | IC50 (β-Glucuronidase): 45.8 µM |
| Cc1c(C2=C(C#N)C=NC2)sc2sc(C3=C(C#N)C=NC3)c(-c3ccccc3)c12 [Compound 5, 3-(5-(4-Cyano-2H-pyrrol-3-yl)-3-methyl-4-phenylthieno[2,3-b]thiophen-2-yl)-2H-pyrrole-4-carbonitrile] | > 320 °C | > 30 µM | IC50 (β-Glucuronidase): 0.13 ± 0.019 µM |
| Cc1c(-c2csc(N)n2)sc2sc(-c3csc(N)n3)c(-c3ccccc3)c12 [Compound 8b, 4,4'-(3-Methyl-4-phenylthieno[2,3-b]thiophene-2,5-diyl)dithiazol-2-amine] | 260 to 261 °C | 24.2 ± 0.29 µM | – |
| CC(=O)N[C@@H](CS)C(=O)O [N-Acetylcysteine] | – | – | IC50 ([2]; listed as N-acetylcystein): 106 ± 1.1 µM; IC50 [2]: 106 µM |
| Cc1c(C(=O)CNc2ccccc2)sc2sc(C(=O)CNc3ccccc3)c(-c3ccccc3)c12 [Compound 9a, 1,1'-(3-Methyl-4-phenylthieno[2,3-b]thiophene-2,5-diyl)bis(2-(phenylamino)ethanone)] | > 320 °C | > 30 µM | – |
| Cc1c(-c2cn3[nH]cnc3n2)sc2sc(-c3cn4[nH]cnc4n3)c(-c3ccccc3)c12 [Compound 7, 5,5'-(3-Methyl-4-phenylthieno[2,3-b]thiophene-2,5-diyl)bis(1H-imidazo[1,2-b] [1,2, 4]triazole)] | > 320 °C | – | – |
| COc1cccc2c1C(=O)c1c(O)c3c(c(O)c1C2=O)C[C@@](O)(C(=O)CO)C[C@@H]3O[C@H]1C[C@H](N)[C@H](O)[C@H](C)O1 [Doxorubicin, reference compound] | – | 0.912 ± 0.12 µM | IC50 ([1]; 48 hrs): 0.91 µM |
| Cc1c(-c2csc(C(C#N)=Cc3ccc(Cl)cc3)n2)sc2sc(-c3csc(C(C#N)=Cc4ccc(Cl)cc4)n3)c(-c3ccccc3)c12 [Compound 4b, 3-(4-Chlorophenyl)-2-(4-(5-(2-(2-(4-chlorophenyl)-1-cyanovinyl)thiazol-4-yl)-3-methyl-4-phenylthieno[2,3-b]thiophen-2-yl)thiazol-2-yl)acrylonitrile] | 167 to 168 °C | > 30 µM | – |
| Cc1c(-c2cn3c(nc4ccccc43)[nH]2)sc2sc(-c3cn4c(nc5ccccc54)[nH]3)c(-c3ccccc3)c12 [Compound 6, 5,5'-(3-Methyl-4-phenylthieno[2,3-b]thiophene-2,5-diyl)bis(1H-imidazo[1,2a]benzimidazole)] | > 320 °C | – | – |
| Cc1c(-c2coc(N)n2)sc2sc(-c3coc(N)n3)c(-c3ccccc3)c12 [Compound 8a, 4,4'-(3-Methyl-4-phenylthieno[2,3-b]thiophene-2,5-diyl)dioxazol-2-amine] | > 320 °C | > 30 µM | IC50 (β-Glucuronidase): 1.2 ± 0.0785 µM |
| Cc1c(-c2c[nH]c(N)n2)sc2sc(-c3c[nH]c(N)n3)c(-c3ccccc3)c12 [Compound 8c, 4,4'-(3-Methyl-4-phenylthieno[2,3-b]thiophene-2,5-diyl)bis(1H-imidazol-2-amine)] | > 320 °C | – | – |
| Cc1c(-c2csc(CC#N)n2)sc2sc(-c3csc(CC#N)n3)c(-c3ccccc3)c12 [Compound 3, 2,2'-(4,4'-(3-Methyl-4-phenylthieno[2,3-b]thiophene-2,5-diyl)bis(thiazole-4,2-diyl)) diacetonitrile] | > 320 °C | > 30 µM | – |
